According to PubChem BioAssay (NCI):
Several values for one entry are separate records, joined by “and”; a condition that tells them apart may be missing. Identical values can stand only once.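 Briefly, cells in 96-well plates were exposed to five compound concentrations for 48 h, and endpoints were estimated by linear interpolation. GI50 = concentration required for 50% inhibition of growth. At the TGI there is no net growth.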

Experiments:
Assay in all cases: DTP human tumour cell line panel, 48 h
RXF-631 renal = test system: RXF-631 renal
DMS 114 small cell lung = test system: DMS 114 small cell lung
KM20L2 colon = test system: KM20L2 colon
SNB-78 CNS = test system: SNB-78 CNS
DLD-1 colon = test system: DLD-1 colon
MCF7 breast = test system: MCF7 breast
PC-3 prostate = test system: PC-3 prostate
MDA-MB-435 = test system: MDA-MB-435
MDA-MB-231 breast = test system: MDA-MB-231 breast
HS 578T breast = test system: HS 578T breast

O=C(Nc1nc2ncn(CC(COc3ccccc3)OC(=O)c3ccccc3)c2c(=O)[nH]1)c1ccccc1 (stereo unspecified)
TGI (RXF-631 renal): > 100 µM | TGI (DMS 114 small cell lung): > 100 µM | TGI (KM20L2 colon): > 100 µM

c1ccc(CN(Cn2cccn2)Cn2cccn2)nc1
TGI (RXF-631 renal): > 100 µM | TGI (DMS 114 small cell lung): > 100 µM | TGI (SNB-78 CNS): > 100 µM | TGI (KM20L2 colon): > 100 µM | TGI (DLD-1 colon): > 100 µM

O=C(NO)C12C3C4C1C1C2C3C41C(=O)NO (stereo unspecified)
TGI (DMS 114 small cell lung): > 100 µM | TGI (SNB-78 CNS): > 100 µM | TGI (KM20L2 colon): > 100 µM | TGI (DLD-1 colon): > 100 µM

O=c1cnn2c(n1)sc1ccc3ccccc3c12
TGI (DMS 114 small cell lung): > 100 µM | TGI (SNB-78 CNS): > 100 µM | TGI (KM20L2 colon): > 100 µM | TGI (DLD-1 colon): > 100 µM

Cc1ccccc1CN1CC=c2ccccc2=N1
TGI (RXF-631 renal): > 100 µM | TGI (DMS 114 small cell lung): > 100 µM | TGI (SNB-78 CNS): > 100 µM | TGI (KM20L2 colon): > 100 µM | TGI (DLD-1 colon): > 100 µM

Cc1cc(Cl)ccc1N=C1NC(=O)C(CC(=O)Nc2ccc(Cl)cc2Cl)S1 (stereo unspecified)
TGI (RXF-631 renal): > 100 µM | TGI (DMS 114 small cell lung): > 100 µM | TGI (SNB-78 CNS): > 100 µM | TGI (KM20L2 colon): > 100 µM | TGI (DLD-1 colon): > 100 µM

CC1C=CC(=O)C(n2cc(F)c(=O)[nH]c2=O)O1 (stereo unspecified)
TGI (RXF-631 renal): 48 µM | TGI (DMS 114 small cell lung): 31.5 µM | TGI (SNB-78 CNS): 83.8 µM | TGI (KM20L2 colon): 37.5 µM | TGI (DLD-1 colon): 45.3 µM

NC1=N/C(=C2/CCNC(=O)c3[nH]c(Br)cc32)C(=O)N1
TGI (MCF7 breast): > 100 µM | TGI (PC-3 prostate): > 100 µM | TGI (DMS 114 small cell lung): > 100 µM | TGI (SNB-78 CNS): > 100 µM | TGI (MDA-MB-435): > 55.5 µM | TGI (MDA-MB-231 breast): 16.2 µM | TGI (KM20L2 colon): > 100 µM | TGI (DLD-1 colon): > 100 µM | TGI (HS 578T breast): > 91.2 µM

Nc1ccn(C2CC(CO)C(O)C2O)c(=O)n1 (stereo unspecified)
TGI (RXF-631 renal): > 57.7 µM | TGI (DMS 114 small cell lung): > 57.7 µM | TGI (SNB-78 CNS): > 57.7 µM | TGI (KM20L2 colon): > 57.7 µM | TGI (DLD-1 colon): > 57.7 µM

CC1OC(OCC2COC(O)(Oc3c(-c4ccc(O)c(O)c4)oc4cc(O)cc(O)c4c3=O)C(O)C2O)C(O)C(O)C1O (stereo unspecified)
TGI (RXF-631 renal): > 100 µM | TGI (DMS 114 small cell lung): > 100 µM | TGI (SNB-78 CNS): > 100 µM | TGI (KM20L2 colon): > 100 µM | TGI (DLD-1 colon): > 100 µM

O=C(Nc1c(O)[nH]c(=S)[nH]c1=O)c1ccc2ccccc2n1
TGI (RXF-631 renal): > 100 µM | TGI (DMS 114 small cell lung): > 100 µM | TGI (SNB-78 CNS): > 100 µM | TGI (KM20L2 colon): > 100 µM | TGI (DLD-1 colon): > 100 µM

C1=Cc2nc1c(-c1ccncc1)c1ccc([n-]1)c(-c1ccncc1)c1nc(c(-c3ccncc3)c3ccc([n-]3)c2-c2ccncc2)C=C1.[Zn+2]
TGI (RXF-631 renal): > 100 µM | TGI (DMS 114 small cell lung): > 100 µM | TGI (SNB-78 CNS): > 100 µM | TGI (KM20L2 colon): > 100 µM | TGI (DLD-1 colon): > 100 µM

O=[N+]([O-])c1nccn1COCCF
TGI (DMS 114 small cell lung): > 100 µM | TGI (SNB-78 CNS): > 100 µM | TGI (KM20L2 colon): > 100 µM | TGI (DLD-1 colon): > 100 µM

N#Cc1cc([N+](=O)[O-])ccc1NC(=O)C(=O)C(C(=O)/C=C/c1ccccc1)C1OC(=O)c2ccccc21 (stereo unspecified)
TGI (RXF-631 renal): > 100 µM | TGI (DMS 114 small cell lung): > 100 µM | TGI (SNB-78 CNS): > 100 µM | TGI (KM20L2 colon): > 100 µM | TGI (DLD-1 colon): > 100 µM

CCN(CC)C(=O)COc1ccc(Br)cc1Br
TGI (RXF-631 renal): > 100 µM | TGI (DMS 114 small cell lung): > 100 µM | TGI (SNB-78 CNS): > 100 µM | TGI (KM20L2 colon): > 100 µM | TGI (DLD-1 colon): > 100 µM

CCOC(=O)/C(=C/c1ccc(C#N)cc1)N(CC)CC
TGI (RXF-631 renal): > 100 µM | TGI (DMS 114 small cell lung): > 100 µM | TGI (SNB-78 CNS): > 100 µM | TGI (DLD-1 colon): > 100 µM

CO[C@@H]1[C@H](OC(=O)NC(=O)CCl)CC[C@]2(CO2)[C@H]1[C@@]1(C)O[C@@H]1CC=C(C)C
TGI (RXF-631 renal): 3.14 µM | GI50 (MCF7 breast): 10.7 µM | TGI (MCF7 breast): 44.4 µM and 180 µM | GI50 (PC-3 prostate): 25.3 µM | TGI (PC-3 prostate): 28.6 µM and 57.2 µM | GI50 (DMS 114 small cell lung): 2.17 µM | TGI (DMS 114 small cell lung): 23.4 µM | GI50 (MDA-MB-435): 5.68 µM | TGI (MDA-MB-435): 29.3 µM and 36.8 µM | GI50 (MDA-MB-231 breast): 4.28 µM | TGI (MDA-MB-231 breast): 38.1 µM and 12.7 µM | TGI (KM20L2 colon): 41.5 µM | GI50 (DLD-1 colon): 5.1 µM | TGI (DLD-1 colon): 42 µM | TGI (HS 578T breast): 63.7 µM and 157 µM

Cc1ccccc1C(C#N)C(=O)C(=O)Nc1cccc(Cl)c1 (stereo unspecified)
TGI (RXF-631 renal): > 100 µM | TGI (DMS 114 small cell lung): > 100 µM | TGI (SNB-78 CNS): > 100 µM | TGI (KM20L2 colon): > 100 µM | TGI (DLD-1 colon): > 100 µM

O=C(COc1ccccc1)NS(=O)(=O)c1ccccc1
TGI (RXF-631 renal): > 100 µM | TGI (DMS 114 small cell lung): > 100 µM | TGI (SNB-78 CNS): > 100 µM | TGI (KM20L2 colon): > 100 µM | TGI (DLD-1 colon): > 100 µM

COc1ccc(/C=C2\CCC(C)(CN(C)C)C2=O)cc1 (stereo unspecified)
TGI (RXF-631 renal): > 100 µM | TGI (DMS 114 small cell lung): > 100 µM | TGI (SNB-78 CNS): > 100 µM | TGI (KM20L2 colon): > 100 µM | TGI (DLD-1 colon): > 100 µM

CC1=C(C(=O)NCc2ccccc2)C(c2ccccc2[N+](=O)[O-])C(C(=O)NCc2ccccc2)=C(C)N1
TGI (RXF-631 renal): 29.2 µM | TGI (DMS 114 small cell lung): 29.8 µM | TGI (SNB-78 CNS): 42.6 µM | TGI (KM20L2 colon): 30.3 µM | TGI (DLD-1 colon): 20.3 µM

COC(=O)C(Cl)=C1CC1
TGI (DMS 114 small cell lung): 95.6 µM | TGI (SNB-78 CNS): > 100 µM | TGI (KM20L2 colon): > 100 µM | TGI (DLD-1 colon): 64.1 µM

CC(C)(C)C(=O)C1CC(=O)c2ccccc2C1=O (stereo unspecified)
TGI (RXF-631 renal): > 100 µM | TGI (DMS 114 small cell lung): > 100 µM | TGI (SNB-78 CNS): 90.7 µM | TGI (KM20L2 colon): > 100 µM | TGI (DLD-1 colon): > 100 µM

O=C1C(=O)C(Br)(Br)C(Br)=C1Br
TGI (RXF-631 renal): > 100 µM | TGI (DMS 114 small cell lung): 40.8 µM | TGI (KM20L2 colon): 30.7 µM | TGI (DLD-1 colon): 41.4 µM

CC1=C(C(=O)Nc2ccc(Cl)c(Cl)c2)C(c2ccco2)C(C(=O)Nc2ccc(Cl)c(Cl)c2)=C(C)N1
TGI (RXF-631 renal): 46 µM | TGI (DMS 114 small cell lung): 22.2 µM | TGI (SNB-78 CNS): 41.4 µM | TGI (DLD-1 colon): 23.4 µM

COc1ccc(C(c2c(O)c3ccccc3n(C)c2=O)c2c(O)c3ccccc3n(C)c2=O)cc1
TGI (RXF-631 renal): > 100 µM | TGI (DMS 114 small cell lung): > 100 µM | TGI (SNB-78 CNS): 67.5 µM | TGI (KM20L2 colon): 45.7 µM | TGI (DLD-1 colon): > 100 µM

Cc1ccc(Cl)c(NC(=O)C(=O)C(C(=O)c2ccncc2)C2OC(=O)c3ccccc32)c1 (stereo unspecified)
TGI (RXF-631 renal): > 100 µM | TGI (DMS 114 small cell lung): > 100 µM | TGI (SNB-78 CNS): > 100 µM | TGI (DLD-1 colon): > 100 µM

COC(=O)C1=C(CO)C2C=CC1C2 (stereo unspecified)
TGI (RXF-631 renal): > 100 µM | TGI (SNB-78 CNS): > 100 µM | TGI (KM20L2 colon): > 100 µM | TGI (DLD-1 colon): > 100 µM

O=c1c2ccccc2c2nc3ccccc3nc2n1C1CCCCC1
TGI (DMS 114 small cell lung): > 100 µM | TGI (SNB-78 CNS): > 100 µM | TGI (KM20L2 colon): > 100 µM

CCOC(=O)c1cn(Cc2ccccc2)c(=O)n1Cc1ccccc1
TGI (RXF-631 renal): > 100 µM | TGI (DMS 114 small cell lung): > 100 µM | TGI (SNB-78 CNS): > 100 µM | TGI (KM20L2 colon): > 100 µM | TGI (DLD-1 colon): > 100 µM

Cc1cc(Cl)cc2c1NC(=O)C2(O)C(C)C(=O)c1ccc(Cl)cc1 (stereo unspecified)
TGI (DMS 114 small cell lung): > 96.6 µM | TGI (SNB-78 CNS): > 100 µM | TGI (KM20L2 colon): > 100 µM | TGI (DLD-1 colon): > 100 µM

CC(C)=CC(=O)Cc1nc2cc(C)c(C)cc2[nH]c1=O
TGI (RXF-631 renal): > 100 µM | TGI (SNB-78 CNS): > 100 µM | TGI (KM20L2 colon): > 100 µM | TGI (DLD-1 colon): > 100 µM

N#CCCN(c1ccc(-c2nnc(NC(=O)CNNC(=O)CC(=O)Nc3ccccc3)s2)cc1)S(=O)(=O)c1ccccc1
TGI (RXF-631 renal): > 100 µM | TGI (DMS 114 small cell lung): > 100 µM | TGI (DLD-1 colon): > 100 µM

COC(=O)[C@]1(C)CCC[C@@]2(C)C1CCC1=CC3(C(C)C)CCC12OO3 (stereo partly specified)
TGI (RXF-631 renal): > 100 µM | TGI (SNB-78 CNS): > 100 µM | TGI (KM20L2 colon): > 100 µM | TGI (DLD-1 colon): > 100 µM
